#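 How tested: cells in 96-well plates exposed to compound for 48 hours at five concentrations. GI50 marks 50% less growth. TGI denotes the concentration required for complete inhibition of growth.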
# Assays:
# Test in all cases: growth of human tumour cells (NCI), 48 h
# [1] = system: IGROV1 ovarian
# [2] = system: UACC-257 melanoma
# [3] = system: OVCAR-8 ovarian
# [4] = system: UACC-62 melanoma
# [5] = system: MDA-MB-231 breast
# [6] = system: MDA-MB-435
# [7] = system: PC-3 prostate
# [8] = system: 786-0 renal
# [9] = system: CCRF-CEM leukemia
# [10] = system: SF-295 CNS
# [11] = system: U251 CNS
# [12] = system: MOLT-4 leukemia
# [13] = system: SNB-75 CNS
# [14] = system: SK-MEL-5 melanoma
# [15] = system: SK-MEL-28 melanoma
# [16] = system: SK-OV-3 ovarian
# [17] = system: SF-539 CNS
# [18] = system: NCI-H460 lung
# [19] = system: EKVX NSCLC
# [20] = system: TK-10 renal
# [21] = system: SF-268 CNS
# [22] = system: SK-MEL-2 melanoma
# [23] = system: NCI-H522 lung
# [24] = system: HT29 colon
# [25] = system: A549 NSCLC
# [26] = system: KM12 colon
# [27] = system: SR leukemia
# [28] = system: NCI-H226 lung
# [29] = system: NCI-H23 lung
# [30] = system: HOP-92 NSCLC
# [31] = system: SNB-19 CNS
# [32] = system: OVCAR-4 ovarian
# [33] = system: A498 renal
# [34] = system: DU-145 prostate
# [35] = system: SW-620 colon
# [36] = system: HCC-2998 colon
# [37] = system: CAKI-1 renal
# [38] = system: MDA-MB-468 breast
# [39] = system: MCF7 breast
# [40] = system: LOX IMVI melanoma
# [41] = system: BT-549 breast
# [42] = system: HS 578T breast
# [43] = system: UO-31 renal
# [44] = system: M14 melanoma
# [45] = system: RPMI-8226 leukemia
# [46] = system: OVCAR-5 ovarian
# [47] = system: T-47D breast
# [48] = system: MALME-3M melanoma
# [49] = system: ACHN renal
# [50] = system: HOP-62 NSCLC
# [51] = system: HCT-116 colon
# [52] = system: COLO 205 colon
# [53] = system: RXF 393 renal
# [54] = system: SN12C renal
# [55] = system: HCT-15 colon
# [56] = system: OVCAR-3 ovarian
# [57] = system: HL-60(TB) leukemia
structure (smiles),measurement,setting,value
CSc1ccccc1NC(=O)c1ccc2nn(/C(C#N)=C/c3ccccn3)nc2c1,GI50,[1],4.52 µM
same,TGI,[1],15.9 µM
same,GI50,[2],2.57 µM
same,TGI,[2],7.49 µM
same,GI50,[3],3.14 µM
same,TGI,[3],11.7 µM
same,GI50,[4],3.77 µM
same,TGI,[4],14.6 µM
same,GI50,[5],2.91 µM
same,TGI,[5],8.48 µM
same,GI50,[6],2.67 µM
same,TGI,[6],9.09 µM
same,GI50,[7],7.04 µM
same,TGI,[7],23.7 µM
same,GI50,[8],3.68 µM
same,TGI,[8],12.4 µM
same,GI50,[9],3.13 µM
same,TGI,[9],30.7 µM
same,GI50,[10],13.8 µM
same,TGI,[10],27.3 µM
same,GI50,[11],4.35 µM
same,TGI,[11],15.7 µM
same,GI50,[12],2.68 µM
same,TGI,[12],7.74 µM
same,GI50,[13],5.8 µM
same,TGI,[13],20.6 µM
same,GI50,[14],4.99 µM
same,TGI,[14],17.2 µM
same,GI50,[15],2.06 µM
same,TGI,[15],4.57 µM
same,GI50,[16],16 µM
same,TGI,[16],30.1 µM
same,GI50,[17],2.8 µM
same,TGI,[17],8.64 µM
same,GI50,[18],3.16 µM
same,TGI,[18],11.6 µM
same,GI50,[19],9.18 µM
same,TGI,[19],21.6 µM
same,GI50,[20],4.26 µM
same,TGI,[20],15.9 µM
same,GI50,[21],10.3 µM
same,TGI,[21],28.1 µM
same,GI50,[22],6.47 µM
same,TGI,[22],20 µM
same,GI50,[23],1.65 µM
same,TGI,[23],3.43 µM
same,GI50,[24],3.09 µM
same,TGI,[24],10.1 µM
same,GI50,[25],12.2 µM
same,TGI,[25],28.5 µM
same,GI50,[26],7.64 µM
same,TGI,[26],24.2 µM
same,GI50,[27],2.35 µM
same,TGI,[27],7.96 µM
same,GI50,[28],13.5 µM
same,TGI,[28],28.5 µM
same,GI50,[29],5.13 µM
same,TGI,[29],18.2 µM
same,GI50,[30],6.41 µM
same,TGI,[30],23.9 µM
same,GI50,[31],12.8 µM
same,TGI,[31],26.5 µM
same,GI50,[32],6.5 µM
same,TGI,[32],19.5 µM
same,GI50,[33],16 µM
same,TGI,[33],29.7 µM
same,GI50,[34],4.38 µM
same,TGI,[34],15 µM
same,GI50,[35],2.29 µM
same,TGI,[35],5.39 µM
same,GI50,[36],4.08 µM
same,TGI,[36],14.6 µM
same,GI50,[37],2.78 µM
same,TGI,[37],10.8 µM
same,GI50,[38],1.84 µM
same,TGI,[38],4.2 µM
same,GI50,[39],3 µM
same,TGI,[39],13.1 µM
same,GI50,[40],1.72 µM
same,TGI,[40],3.28 µM
same,GI50,[41],6.17 µM
same,TGI,[41],18.7 µM
same,GI50,[42],3.19 µM
same,TGI,[42],14.3 µM
same,GI50,[43],2.01 µM
same,TGI,[43],4.74 µM
same,GI50,[44],2.96 µM
same,TGI,[44],10.4 µM
same,GI50,[45],2.63 µM
same,TGI,[45],8.32 µM
same,GI50,[46],4.69 µM
same,TGI,[46],17.5 µM
same,GI50,[47],3.5 µM
same,TGI,[47],16.6 µM
same,GI50,[48],2 µM
same,TGI,[48],4.25 µM
same,GI50,[49],2.1 µM
same,TGI,[49],4.42 µM
same,GI50,[50],13.1 µM
same,TGI,[50],27.2 µM
same,GI50,[51],2.14 µM
same,TGI,[51],4.72 µM
same,GI50,[52],1.96 µM
same,TGI,[52],4.25 µM
same,GI50,[53],1.78 µM
same,TGI,[53],4.16 µM
same,GI50,[54],4.53 µM
same,TGI,[54],16.1 µM
same,GI50,[55],1.73 µM
same,TGI,[55],3.53 µM
same,GI50,[56],2.29 µM
same,TGI,[56],5.95 µM
same,GI50,[57],2.07 µM
same,TGI,[57],6.58 µM

# From PubChem BioAssay (NCI)
